According to article PMC4854855 (EJNMMI Research, 2016):
Where “and” joins values, the source holds several entries; their conditions need not be identical. Equal values may be shown once. Entries after “also recorded” stand apart in the source; their conditions may differ.

Columns and labels:
[1] = Storage stability of labeling precursor; format: physicochemical; conditions: solid, stored at 4 °C
PSMA+ LNCaP tumor [2] = test: Dynamic PET imaging in LNCaP tumor-bearing BALB/c nude mice; format: in vivo, mouse
Method: PET imaging experiments were carried out in LNCaP and PC3 tumor-bearing Balb/c nude mice (Charles River Laboratories, Quebec, Canada). Male Balb/c nude mice were housed under standard conditions with free access to standard food and tap water. LNCaP and PC3 cells (5 × 10^6 cells in 100 μL of PBS) were injected into the upper left flank of the mice (20–24 g). Before injecting LNCaP cells, the mice received a 1.0-mg/pellet containing testosterone in a 60-day release preparation (Innovative Research of America, Sarasota, FL, USA). The pellet was implanted subcutaneously into the upper right flank in order to provide a constant level of testosterone needed by the androgen receptor positive LNCaP cells. Tumors reached sizes of approximately 1 cm^3 which were suitable for all in vivo experiments. General anesthesia of tumor-bearing mice was induced with inhalation of isoflurane in 40 % oxygen/60 % nitrogen (gas flow = […]), and the mice were subsequently fixed in prone position. The body temperature was kept constant at 37 °C for the entire experiment. The mice were positioned in a prone position into the center of the field of view. A transmission scan for attenuation correction was not acquired. […] For blocking studies, the animals were pre-dosed with 300 μg of DCFPyL in 50 μL saline about 10 min prior to radiotracer injection. Data acquisition was performed over 60 min in a 3D list mode. The dynamic list mode data were sorted into sinograms with 53 time frames (10 × 2, 8 × 5, 6 × 10, 6 × 20, 8 × 60, 10 × 120, 5 × 300 s). The frames were reconstructed using maximum a posteriori (MAP) as reconstruction mode. The pixel size was 0.085 × 0.085 × 0.121 mm^3 (256 × 256 × 63), and the resolution in the center of the field of view was 1.8 mm. No correction for partial volume effects was applied. The image files were processed using the ROVER v 2.0.51 software (ABX GmbH, Radeberg, Germany). Masks defining 3D regions of interest (ROI) were set and the ROIs were defined by thresholding. Mean standardized uptake values [SUV]mean = (activity/mL tissue)/(injected activity/body weight), mL/g, were calculated for each ROI. Time-activity curves (TACs) were generated for the dynamic scans only. All semi-quantified PET data are presented as means ± SEM. Statistical difference for the blocking study was tested by unpaired Student’s t test and was considered significant for P < 0.05.

PSMA− PC3 tumor [3] = test: Dynamic PET imaging in PC3 tumor-bearing BALB/c nude mice; format: in vivo, mouse; conditions: 60 min p.i.
Method: PET imaging experiments were carried out in LNCaP and PC3 tumor-bearing Balb/c nude mice (Charles River Laboratories, Quebec, Canada). Male Balb/c nude mice were housed under standard conditions with free access to standard food and tap water. LNCaP and PC3 cells (5 × 10^6 cells in 100 μL of PBS) were injected into the upper left flank of the mice (20–24 g). Before injecting LNCaP cells, the mice received a 1.0-mg/pellet containing testosterone in a 60-day release preparation (Innovative Research of America, Sarasota, FL, USA). The pellet was implanted subcutaneously into the upper right flank in order to provide a constant level of testosterone needed by the androgen receptor positive LNCaP cells. Tumors reached sizes of approximately 1 cm^3 which were suitable for all in vivo experiments. General anesthesia of tumor-bearing mice was induced with inhalation of isoflurane in 40 % oxygen/60 % nitrogen (gas flow = […]), and the mice were subsequently fixed in prone position. The body temperature was kept constant at 37 °C for the entire experiment. The mice were positioned in a prone position into the center of the field of view. A transmission scan for attenuation correction was not acquired. […] Mean standardized uptake values [SUV]mean = (activity/mL tissue)/(injected activity/body weight), mL/g, were calculated for each ROI. […] All semi-quantified PET data are presented as means ± SEM. […]

PSMA+ LNCaP cells = test: Cell-specific internalization experiment in LNCaP cells; format: cell-based
Method: (§1) 10^5 LNCaP or PC3 cells were seeded in poly-D-lysine-coated 12-well plates 24–48 h before the assay so that cells could reach 95 % confluency. The medium was removed 1 h before the assay, and the cells were rinsed twice with PBS. After the addition of Krebs buffer (1 mL) to each well, the cells were incubated at 37 °C. […] Cellular uptake was stopped by removing incubation media from the cells and washing the wells twice with ice-cold PBS buffer (1 mL). Surface-bound radioactivity was removed from the cells through incubating the cells twice with 0.5 mL glycine-HCl in PBS (50 mM, pH 2.5) for 5 min at 37 °C. Cells were washed again with ice-cold PBS before the addition of radio-immunoprecipitation assay (RIPA) buffer (400 μL) to lyse the cells. Cells were returned into the incubator for 10 min, and cell lysates were collected for counting. Radioactivity of surface-bound and internalized fraction was measured in a WIZARD2 Automatic gamma counter (Perkin Elmer, Waltham, MA, USA). Total protein concentration in the samples was determined by the bicinchoninic acid method (BCA; Pierce, Thermo Scientific 23227) using bovine serum albumin (800, 600, 400, 300, 200, 100, 50 μg/mL, blank) as protein standard. Data are expressed as percent of total uptake per 1 mg protein (% of total uptake/mg protein).

PSMA− PC3 cells = test: Cell-specific internalization experiment in PC3 cells; format: cell-based; conditions: 60 min, 37 °C
Method: as §1

[4] = Radiometabolite analysis / in vivo metabolic stability in BALB/c mice; parameters: species or system mouse
Method: Venous blood samples were collected at 5, 15, 30, and 60 min p.i. via the mouse tail vein and further processed. Blood cells were separated by centrifugation (13,000 rpm × 5 min). Precipitation of proteins in the supernatant was achieved by the addition of 2 volume parts of MeOH, and the samples were centrifuged again (13,000 rpm × 5 min). Fractions of blood cells, proteins, and plasma were measured in a Wizard gamma counter to determine radioactivity per sample. The clear plasma supernatant was injected onto a Shimadzu HPLC system.
The samples were analyzed using a Phenomenex Luna 10u C18 [2] 100 A, 250 × 4.6 mm column at a constant flow rate of 1 mL min^−1 and the following gradient with water/0.2 % TFA as solvent A and CH3CN as solvent B: 0–7.5 min 20 % B, 7.5–15 min gradient to 90 % B, 15–20 min 90 % B.

PSMA+ LNCaP tumor [5] = test: Tracer kinetic analysis (reversible two-tissue compartmental model), LNCaP tumors; format: in vivo, mouse
Method: (§2) Tracer kinetic analysis was performed using a two-tissue compartmental model using dynamically acquired PET imaging data. Full details on tracer kinetic analysis are given in the Additional file 1. […] Tracer kinetic analysis was carried out with PET imaging data acquired dynamically from PSMA+ LNCaP and PSMA− PC3 tumor-bearing mice (see Fig. 7). Four kinetic parameters (K1, k2, k3, k4) describing the flow of the radiotracer from the blood to the tissue (K1) and from the tissue into the blood (k2), binding of the radiotracer to the tissue (k3) and dissociation from the tissue (k4), were calculated. The analysis was performed by fitting the measured TACs with a two-exponential model of the general form as described, e.g., by van den Hoff (Additional file 1: Figure S2). Tracer kinetic analysis was performed using a two-tissue compartmental model using dynamically acquired PET imaging data. A volume of interest (VOI) was defined for the tumor using the Rover software (ABX GmbH, Dresden, Germany) by applying a threshold of 50% SUVmax within an ellipsoid mask around the tumor on an image representing the average of the last 40 min of the acquisition (i.e. excluding the tracer uptake phase). Image derived input functions were obtained from regions around the heart, defined by the injected blood bolus visible in the first few time fames of the dynamic acquisitions, using a threshold of 75% of SUVmax in that region. Four kinetic parameters (K1, k2, k3, k4) and the fractional blood volume (fbv) which accounts for the non-zero vascular space within the tumor ROI, describe the model. The analysis was carried out by fitting the measured tumor time-activity curves (TACs) with a two-exponential model of the general form: The fit of equation [1] to the experimentally acquired tumor TACs was implemented in Matlab (The Mathworks, Inc., v. R2014b), utilizing a Nelder-Mead simplex direct search. The fit was governed by the minimization of the sum over all time points of square differences between the measured values and the model prediction (Figure S2).

PSMA− PC3 tumor [6] = test: Tracer kinetic analysis (reversible two-tissue compartmental model), PC3 tumors; format: in vivo, mouse
Method: as §2

[7] = Stability of the product in saline (quality control); format: physicochemical; conditions: up to 4 h
Method: Radio-TLC analysis on silica gel plates gave a Rf value of 0.6 in 95 % CH3CN/H2O (Additional file 1: Figure S4).
[^18F]fluoride. Radio-TLC analysis on silica gel plates gave a Rf value of 0.6 in 95 % CH3CN/H2O (Additional file 1: Figure S4), and the product was stable (>95 %) in saline of up to 4 h.

[8] = LNCaP, two-tissue compartmental model

## CC(C)(C)OC(=O)CCC(NC(=O)NC(CCCCNC(=O)c1ccc([N+](C)(C)C)nc1)C(=O)OC(C)(C)C)C(=O)OC(C)(C)C (centres unmarked) [Compound 9]
[1]
  storage time without significant decomposition: at least 3 months

## O=C(O)CC[C@H](NC(=O)N[C@@H](CCCCNC(=O)c1ccc(F)nc1)C(=O)O)C(=O)O [DCFPyL, reference compound]
PSMA+ LNCaP tumor [2]; 60 min p.i., 300 μg DCFPyL before radiotracer
  reduction of [18F]DCFPyL radioactivity uptake in LNCaP tumor upon pretreatment with DCFPyL: 80%

## O=C(O)CCC(NC(=O)NC(CCCCNC(=O)c1ccc([18F])nc1)C(=O)O)C(=O)O [[^18F]DCFPyL, (S)-2-[3-((S)-1-carboxy-5-[3-(6-fluoropyridine)carbonyl)amino)pentyl)ureido]-pentanedioic acid]
PSMA+ LNCaP tumor [2]; 5 min p.i., dynamic PET
  SUV5min, radioactivity uptake in LNCaP tumors: 0.95
PSMA+ LNCaP tumor [2]; 60 min p.i.
  SUV60min, muscle as reference tissue: 0.06
PSMA+ LNCaP tumor [2]; 60 min p.i., dynamic PET
  SUV60min, radioactivity uptake in LNCaP tumor (control): 1.1 and 1.1 ± 0.1
PSMA+ LNCaP tumor [2]; 60 min p.i., pre-dosed with 300 μg nonradioactive DCFPyL
  SUV60min, LNCaP tumor, blocked: 0.22 and 0.2 ± 0.05
PSMA− PC3 tumor [3]
  SUV60min, radioactivity uptake in PC3 tumors: 0.11 and 0.1
PSMA+ LNCaP cells; 60 min, 37 °C
  radioactivity uptake, internalized fraction: 35.05 ± 0.69 % of total uptake/mg protein
  radioactivity uptake, membrane-bound fraction: 45.47 ± 1.01 % of total uptake/mg protein
PSMA+ LNCaP cells; 60 min incubation
  fraction of internalized radioactivity: 44%
PSMA− PC3 cells
  radioactivity uptake, internalized fraction: 0.76 ± 0.05 % of total uptake/mg protein
  radioactivity uptake, membrane-bound fraction: 4.30 ± 0.40 % of total uptake/mg protein
[4]; 60 min p.i.
  radiometabolites in urine (radio-HPLC): contained only parent compound; also recorded: no radiometabolites were detected
[4]; n = 3
  binding to plasma proteins (distribution in blood): low binding of the radiotracer to blood cells and plasma proteins; also recorded: only minimal binding to plasma proteins
[4]; over 60 min p.i.
  radiometabolites in plasma (radio-HPLC): no radiometabolites were detected
PSMA+ LNCaP tumor [5]; LNCaP tumors
  coefficient k3/(k3 + k2), fraction entering the second compartment: 0.314
  retention k3/k4: 20.5
PSMA+ LNCaP tumor [5]; [8]
  K1 (flow of radiotracer from blood to tissue): 0.12 min⁻¹
  k2 (flow from tissue into blood): 0.18 min⁻¹
  k3 (binding of radiotracer to tissue): 0.08 min⁻¹ and 0.082 min⁻¹
  k4 (dissociation from tissue): 0.004 min⁻¹
PSMA− PC3 tumor [6]
  coefficient k3/(k3 + k2), fraction entering the second compartment: 0.058
  k3 (binding of radiotracer to tissue): 0.008
  net delivery K1/k2: 0.49
  retention k3/k4: 0.13
[7]
  stability of product in saline: > 95%
